Patent US8591878B2, “Therapeutic compounds” (Merck Sharp & Dohme Corp., priority 2008, dated 2013)

Tested on: subgenomic HCV replicon in Huh-7 cells
Assay: Cell-Based HCV Replication Assay (replicon, NS3 Cell-ELISA)
Design: species or system hepatitis C virus (HCV)
Conditions: Hepatitis C virus; Huh-7 cells with subgenomic HCV replicon; NS3 expression by Cell-ELISA; 96 hours incubation; read-out: Cell based HCV Replication Assay-IC50
Source text: Another suitable assay is the cellular Replicon or rheplisa assay described as follows:
Cell-Based HCV Replication Assay
Cell clones that stably maintain subgenomic HCV replicon were obtained by transfecting Huh-7 cells with an RNA replicon identical to I377neo/NS3-3′/wt described by V. Lohmann et al., 285 SCIENCE 110 (Jul. 2, 1999) (EMBL-GENBANK No. AJ242652), followed by selection with neomycin sulfate (G418). Viral replication was monitored by measuring the expression of the NS3 protein by an ELISA assay performed directly on cells grown in 96-well microtiter plates (Cell-ELISA) using the anti-NS3 monoclonal antibody 10E5/24 (as described in International Patent Application Publication WO 02/59321). Cells were seeded into 96 well plates at a density of 10^4 cells per well in a final volume of 0.1 ml of DMEM/10% FCS. Two hours after plating, 50 μl of DMEM/10% FCS containing a 3× concentration of inhibitor were added, cells were incubated for 96 hours and then fixed for 10 minutes with ice-cold isopropanol. Each condition was tested in duplicate and average absorbance values were used for calculations. The cells were washed twice with PBS, blocked with 5% non-fat dry milk in PBS+0.1% TRITON X-100+0.02% SDS (PBSTS) and then incubated o/n at 4° C. with the 10E5/24 mab diluted in Milk/PBSTS. After washing 5 times with PBSTS, the cells were incubated for 3 hours at room temperature with Fe-specific anti-mouse IgG conjugated to alkaline phosphatase (Sigma), diluted in Milk/PBSTS. After washing again as above, the reaction was developed with p-nitrophenyl phosphate disodium substrate (Sigma) and the absorbance at 405/620 nm read at intervals. For calculations, we used data sets where samples incubated without inhibitors had absorbance values comprised between 1 and 1.5. The inhibitor concentration that reduced by 50% the expression of NS3 (IC50) was calculated by fitting the data to the Hill equation, Fraction inhibition=1−(Ai−b)/(A0−b)=[I]^n/([I]+IC50) where: • Ai=absorbance value of HBI10 cells supplemented with the indicated inhibitor concentration. • A0=absorbance value of HBI10 cells incubated without inhibitor. • b=absorbance value of Huh-7 cells plated at the same density in the same microtiter plates and incubated without inhibitor. • n=Hill coefficient.

Structure (SMILES) | IC50
C=C[C@@H]1C[C@]1(NC(=O)C1C[C@@H]2CN1C(=O)[C@H](C1CCCC1)NC(=O)N1CC[C@@H](C1)OCCC/C=C/c1cc3ccc(OC)cc3nc1O2)C(=O)NS(=O)(=O)C1CC1 (stereo partly drawn) [Example 17, (1R,13E,19S,25S,28S)-25-cyclopentyl-N-((1R,2S)-1-{[(cyclopropylsulfonyl)amino]carbonyl}-2-vinylcyclopropyl)-7-methoxy-23,26-dioxo-2,18-dioxa-4,22,24,27-tetraazapentacyclo [25.2.1.1^19,22.0^3,12.0^5,10] hentriaconta-3(12),4,5,7,9,10,13-heptaene-28-carboxamide] | 4 nM
C=CC1C[C@]1(NC(=O)[C@@H]1C[C@@H]2CN1C(=O)[C@H](C1CCCCC1)NC(=O)N1CCC(CC1)OCCC/C=C/c1cc3c(cc(OCC)nc3cc1OC)O2)C(=O)NS(=O)(=O)C1CC1 (stereo in doubt) [Example 32, (3R,5S,8S,19E)-8-cyclohexyl-N-((1R,2R)-1-{[(cyclopropylsulfonyl)amino]carbonyl}-2-vinylcyclopropyl)-26-ethoxy-22-methoxy-7,10-dioxo-2,15-dioxa-6,9,11,25-tetraazapentacyclo [19.6.2.2^11,14.1^3,6.0^24,28] dotriaconta-1(27),19,21,23,25,28-hexaene-5-carboxamide] | 10 nM
C=C[C@@H]1C[C@]1(NC(=O)[C@@H]1C[C@@H]2CN1C(=O)[C@H](C1CCCC1)NC(=O)N1CC[C@@H](C1)OCCC/C=C/c1cc3ccccc3cc1O2)C(=O)NS(=O)(=O)C1CC1 [Example 37, (1R,13E,19S,25S,28S)-25-cyclopentyl-N-((1R,2S)-1-{[(cyclopropylsulfonyl)amino]carbonyl}-2-vinylcyclopropyl)-23,26-dioxo-2,18-dioxa-22,24,27-triazapentacyclo [25.2.1.1^19,22.0^3,12.0^5,10] hentriaconta-3(12),4,5,7,9,10,13-heptaene-28-carboxamide] | 4 nM
C=CC1C[C@]1(NC(=O)[C@@H]1C[C@@H]2CN1C(=O)[C@H](C1CCCCC1)NC(=O)N1CCC(CC1)OCCCCCc1cc3c(cc(OCC)nc3cc1OC)O2)C(=O)NS(=O)(=O)C1CC1 (stereo in doubt) [Example 34, (3R,5S,8S)-8-cyclohexyl-N-((1R,2R)-1-{[(cyclopropylsulfonyl)amino]carbonyl}-2-vinylcyclopropyl)-26-ethoxy-22-methoxy-7,10-dioxo-2,15-dioxa-6,9,11,25-tetraazapentacyclo [19.6.2.2^11,14.1^3,6.0^24,28] dotriaconta-1(27),21,23,25,28-pentaene-5-carboxamide] | 7 nM
C=C[C@@H]1C[C@]1(NC(=O)[C@@H]1C[C@@H]2CN1C(=O)[C@H](C1CCCC1)NC(=O)N1CC[C@@H](C1)OCCCCCc1cc3ccc(OC)cc3nc1O2)C(=O)NS(=O)(=O)C1CC1 [Example 18, (1R,19S,25S,28S)-25-cyclopentyl-N-((1R,2S)-1-{[(cyclopropylsulfonyl)amino]carbonyl}-2-vinylcyclopropyl)-7-methoxy-23,26-dioxo-2,18-dioxa-4,22,24,27-tetraazapentacyclo [25.2.1.1^19,22.0^3,12.0^5,10] hentriaconta-3(12),4,5,7,9,10-hexaene-28-carboxamide] | 7 nM
CCOc1cc2c3cc(c(OC)cc3n1)/C=C/CO[C@H]1CCN(C1)C(=O)N[C@@H](C1CCCC1)C(=O)N1C[C@@H](C[C@H]1C(=O)N[C@]1(C(=O)NS(=O)(=O)C3CC3)C[C@H]1CC)O2 [Example 23, (3R,5S,8S,14S,17E)-8-cyclopentyl-N-((1R,2R)-1-{[(cyclopropylsulfonyl)amino]carbonyl}-2-ethylcyclopropyl)-24-ethoxy-20-methoxy-7,10-dioxo-2,15-dioxa-6,9,11,23-tetraazapentacyclo [17.6.2.1^3,6.1^11,14.0^22,26] nonacosa-1(25),17,19,21,23,26-hexaene-5-carboxamide] | 7 nM
C=C[C@@H]1C[C@]1(NC(=O)[C@@H]1C[C@@H]2CN1C(=O)[C@H](C1CCCCC1)NC(=O)N1CCC[C@@H](C1)OCCCc1cc3c(cc(-c4ccccc4)nc3cc1OC)O2)C(=O)NS(=O)(=O)C1CC1 [Example 9, (3R,5S,8S,15S)-8-cyclohexyl-N-((1R,2S)-1-{[(cyclopropylsulfonyl)amino]carbonyl}-2-vinylcyclopropyl)-21-methoxy-7,10-dioxo-25-phenyl-2,16-dioxa-6,9,11,24-tetraazapentacyclo [18.6.2.1^3,6.1^11,15.0^23,27] triaconta-1(27),20,22,23,25,27-hexaene-5-carboxamide] | 7 nM
C=C[C@@H]1C[C@]1(NC(=O)[C@@H]1C[C@@H]2CN1C(=O)[C@H](C1CCCCC1)NC(=O)N1CC[C@@H](C1)OC/C=C/c1cc3c(cc(OCC)nc3cc1OC)O2)C(=O)NS(=O)(=O)C1CC1 [Example 13, (3R,5S,8S,14S,17E)-8-cyclohexyl-N-((1R,2S)-1-{[(cyclopropylsulfonyl)amino]carbonyl}-2-vinylcyclopropyl)-24-ethoxy-20-methoxy-7,10-dioxo-2,15-dioxa-6,9,11,23-tetraazapentacyclo [17.6.2.1^3,6.1^11,14.0^22,26] nonacosa-1(25),17,19,21,23,26-hexaene-5-carboxamide] | 9 nM
C=C[C@@H]1C[C@]1(NC(=O)[C@@H]1C[C@@H]2CN1C(=O)[C@H](C1CCCCC1)NC(=O)N1CCC[C@H](C1)OCCCc1cc3c(cc(-c4ccccc4)nc3cc1OC)O2)C(=O)NS(=O)(=O)C1CC1 [Example 8, (3R,5S,8S,15R)-8-cyclohexyl-N-((1R,2S)-1-{[(cyclopropylsulfonyl)amino]carbonyl}-2-vinylcyclopropyl)-21-methoxy-7,10-dioxo-25-phenyl-2,16-dioxa-6,9,11,24-tetraazapentacyclo [18.6.2.1^3,6.1^11,15.0^23,27] triaconta-1(27),20,22,23,25,27-hexaene-5-carboxamide] | 5 nM
C=C[C@@H]1C[C@]1(NC(=O)[C@@H]1C[C@@H]2CN1C(=O)[C@H](C1CCCCC1)NC(=O)N1CCC[C@H](CCCCc3cc4c(cc(-c5ccccc5)nc4cc3OC)O2)C1)C(=O)NS(=O)(=O)C1CC1 [Example 6, (3R,5S,8S,15S)-8-cyclohexyl-N-((1R,2S)-1-{[(cyclopropylsulfonyl)amino]carbonyl}-2-vinylcyclopropyl)-21-methoxy-7,10-dioxo-25-phenyl-2-oxa-6,9,11,24-tetraazapentacyclo [18.6.2.1^3,6.1^11,15.0^23,27] triaconta-1(27),20,22,23,25,27-hexaene-5-carboxamide] | 24 nM
C=C[C@@H]1C[C@]1(NC(=O)[C@@H]1C[C@@H]2CN1C(=O)[C@H](C1CCCC1)NC(=O)N1CC[C@@H](C1)OC/C=C/Cn1cc(C)c3c4ccccc4nc(c31)O2)C(=O)NS(=O)(=O)C1CC1 [Example 31, (4E,8S,14S,17S,19R)-14-cyclopentyl-N-((1R,2S)-1-{[(cyclopropylsulfonyl)amino]carbonyl}-2-vinylcyclopropyl)-1-methyl-12,15-dioxo-3,6,9,10,12,13,14,15,18,19-decahydro-8H,17H-8,11:16,19-dimethano-7,20-dioxa-2a,11,13,16,21-pentaazabenzo[g] cyclohenicosa[1,2,3-cd]indene-17-carboxamide] | 7 nM
C=C[C@@H]1C[C@]1(NC(=O)[C@@H]1C[C@@H]2CN1C(=O)[C@H](C1CCCC1)NC(=O)N1CC[C@H](C1)OCCC/C=C/c1cc3ccc(OC)cc3nc1O2)C(=O)NS(=O)(=O)C1CC1 [Example 21, (1R,13E,19S,25S,28S)-25-cyclopentyl-N-((1R,2R)-1-{[(cyclopropylsulfonyl)amino]carbonyl}-2-vinylcyclopropyl)-7-methoxy-23,26-dioxo-2,18-dioxa-4,22,24,27-tetraazapentacyclo [25.2.1.1^19,22.0^3,12.0^5,10] hentriaconta-3(12),4,5,7,9,10,13-heptaene-28-carboxamide] | 20 nM

Same assay, conditions: Hepatitis C virus; Huh-7 replicon cells; NS3 expression by Cell-ELISA; 96 hours; read-out: Cell-based HCV Replication Assay: IC50

Structure (SMILES) | IC50
C=C[C@@H]1C[C@]1(NC(=O)[C@@H]1C[C@@H]2CN1C(=O)[C@H](C1CCCCC1)NC(=O)N1CC(C1)OCCCCc1cc3c(cc(OCC)nc3cc1OC)O2)C(=O)NS(=O)(=O)C1CC1 [Example 45, (3R,5S,8S)-8-cyclohexyl-N-((1R,2S)-1-{[(cyclopropylsulfonyl)amino]carbonyl}-2-vinylcyclopropyl)-24-ethoxy-20-methoxy-7,10-dioxo-2,14-dioxa-6,9,11,23-tetraazapentacyclo[17.6.2.1^3,6.1^11,13.0^22,26]nonacosa-1(25),19,21,23,26-pentaene-5-carboxamide] | 6 nM
